Test: Welfare of cows induced to dry off (Example 6): udder pressure index, steps/lying ratio
Type: in vivo, Holstein cows
Experimental: 20 Holstein cows toward the end of lactation (˜60 days) and producing 17-35 liters milk per day were entered to the study. Cows were paired according to lactation number, days in milk, days to parturition, teat-end integrity, milk yield, SCC per ml of milk per cow or quarter and number of quarters infected at day of drying-off (Table 13).
Quarter's milk SCC and bacterial isolation were tested a week apart for 3 times, before drying-off. One cow of each pair was then assigned to a subgroup randomly (by flipping a coin). Cows in subgroup 1 were treated after milking with casein hydrolyzate and with the broad range antibiotic Cefquinome, (75 mg per dose) (N+C), while the cows in subgroup 2 were treated with Cefquinome alone (75 mg per dose) (C). […]
Udder pressure index (UPI) was set as follows: 0, 1, 2 and 3, where 0 is no pressure, 1 is medium pressure, 2 is high pressure and 3 is extremely high pressure. Arbitrary UPI values were determined by assessing the udder pressure by pressing a finger into the tissue and assessing its resistant to pressure in two areas, the milk cistern and corpus ubeis, 10 cm above the teats. […]
Data were statistically analyzed using the fit model procedure for repeated measurements of JMP (Version 5, SAS Institute, Cary, N.C.); treatment was the between-subject factor and time was the within-subject factor. […]

CO/N=C(\C(=O)N[C@@H]1C(=O)N2C(C(=O)[O-])=C(C[n+]3cccc4c3CCCC4)CS[C@H]12)c1csc(N)n1 [C, Cefquinome]
Udder pressure index (UPI), single cow (day 4 after treatment, cow with milk yield over 30 liters per day at dry-off (FIG. 4)): ~2
ratio between number of steps and duration of lying (RSL) (from the second day after treatment, 10 cows per group (FIG. 5)): unchanged
